Laboratory results as given in the NIST ThermoML archive (doi:10.1021/je700438d).
Numbers after ± are expanded uncertainties.

Assay: mn = molality of the nth substance listed, in mol/kg
Conditions: Liquid, Vibrating tube method

[Cl-].[Li+] [lithium chloride] + CCO
Conditions | mass density [kg/m3]
298.15 K, 120 kPa, m1 = 2.88 | 865.97 ± 0.41
298.15 K, 180 kPa, m1 = 0.3023 | 795.82 ± 0.42
298.15 K, 210 kPa, m1 = 0.1049 | 789.29 ± 0.42
298.15 K, 210 kPa, m1 = 1.222 | 823.5 ± 0.41
298.15 K, 250 kPa, m1 = 0.5873 | 804.88 ± 0.42
298.15 K, 410 kPa, m1 = 2.022 | 845.2 ± 0.41
298.15 K, 5040 kPa, m1 = 0.3023 | 799.96 ± 0.43
298.15 K, 5040 kPa, m1 = 2.88 | 869.78 ± 0.42
298.15 K, 5120 kPa, m1 = 0.1049 | 793.51 ± 0.43
298.15 K, 5230 kPa, m1 = 2.022 | 849.07 ± 0.42
298.15 K, 5470 kPa, m1 = 1.222 | 827.84 ± 0.42
298.15 K, 5520 kPa, m1 = 0.5873 | 809.31 ± 0.43
298.15 K, 9820 kPa, m1 = 1.222 | 831.28 ± 0.43
298.15 K, 10030 kPa, m1 = 0.1049 | 797.57 ± 0.44
298.15 K, 10050 kPa, m1 = 2.022 | 852.76 ± 0.43
298.15 K, 10240 kPa, m1 = 0.3023 | 804.22 ± 0.44
298.15 K, 10320 kPa, m1 = 2.88 | 873.67 ± 0.42
298.15 K, 10440 kPa, m1 = 0.5873 | 813.28 ± 0.44
298.15 K, 14990 kPa, m1 = 1.222 | 835.2 ± 0.44
298.15 K, 15030 kPa, m1 = 2.022 | 856.4 ± 0.43
298.15 K, 15170 kPa, m1 = 0.5873 | 816.95 ± 0.45
298.15 K, 15240 kPa, m1 = 0.1049 | 801.71 ± 0.45
298.15 K, 15620 kPa, m1 = 0.3023 | 808.44 ± 0.45
298.15 K, 15640 kPa, m1 = 2.88 | 877.37 ± 0.43
298.15 K, 19040 kPa, m1 = 1.222 | 838.14 ± 0.45
298.15 K, 19250 kPa, m1 = 0.5873 | 819.98 ± 0.46
298.15 K, 20050 kPa, m1 = 0.3023 | 811.77 ± 0.47
298.15 K, 20060 kPa, m1 = 0.1049 | 805.39 ± 0.47
298.15 K, 20120 kPa, m1 = 2.022 | 859.94 ± 0.44
298.15 K, 20610 kPa, m1 = 2.88 | 880.65 ± 0.43
298.15 K, 25080 kPa, m1 = 2.88 | 883.43 ± 0.44
298.15 K, 25410 kPa, m1 = 0.1049 | 809.29 ± 0.49
298.15 K, 25460 kPa, m1 = 1.222 | 842.57 ± 0.46
298.15 K, 25610 kPa, m1 = 2.022 | 863.54 ± 0.45
298.15 K, 25640 kPa, m1 = 0.5873 | 824.52 ± 0.48
298.15 K, 25840 kPa, m1 = 0.3023 | 815.92 ± 0.48
298.15 K, 30060 kPa, m1 = 0.1049 | 812.53 ± 0.5
298.15 K, 30080 kPa, m1 = 2.022 | 866.32 ± 0.46
298.15 K, 30110 kPa, m1 = 0.5873 | 827.53 ± 0.49
298.15 K, 30190 kPa, m1 = 1.222 | 845.65 ± 0.48
298.15 K, 30410 kPa, m1 = 2.88 | 886.56 ± 0.45
298.15 K, 30560 kPa, m1 = 0.3023 | 819.15 ± 0.5
298.15 K, 35090 kPa, m1 = 2.88 | 889.13 ± 0.46
298.15 K, 35410 kPa, m1 = 2.022 | 869.43 ± 0.47
298.15 K, 35560 kPa, m1 = 0.5873 | 831.01 ± 0.51
298.15 K, 35710 kPa, m1 = 0.1049 | 816.28 ± 0.52
298.15 K, 35840 kPa, m1 = 0.3023 | 822.58 ± 0.52
298.15 K, 35870 kPa, m1 = 1.222 | 849.13 ± 0.49
298.15 K, 39820 kPa, m1 = 0.5873 | 833.6 ± 0.52
298.15 K, 39910 kPa, m1 = 0.3023 | 825.1 ± 0.53
298.15 K, 39940 kPa, m1 = 2.022 | 871.92 ± 0.48
298.15 K, 39980 kPa, m1 = 0.1049 | 818.97 ± 0.54
298.15 K, 39980 kPa, m1 = 2.88 | 891.64 ± 0.46
298.15 K, 40070 kPa, m1 = 1.222 | 851.57 ± 0.5
323.15 K, 120 kPa, m1 = 0.1049 | 767.47 ± 0.42
323.15 K, 140 kPa, m1 = 0.3023 | 774.35 ± 0.42
323.15 K, 180 kPa, m1 = 2.88 | 845.88 ± 0.41
323.15 K, 230 kPa, m1 = 2.022 | 824.57 ± 0.41
323.15 K, 240 kPa, m1 = 0.5873 | 783.81 ± 0.42
323.15 K, 410 kPa, m1 = 1.222 | 802.86 ± 0.42
323.15 K, 5030 kPa, m1 = 0.5873 | 788.42 ± 0.43
323.15 K, 5070 kPa, m1 = 1.222 | 807.19 ± 0.43
323.15 K, 5140 kPa, m1 = 0.1049 | 772.47 ± 0.43
323.15 K, 5210 kPa, m1 = 0.3023 | 779.31 ± 0.43
323.15 K, 5410 kPa, m1 = 2.022 | 829.25 ± 0.42
323.15 K, 5410 kPa, m1 = 2.88 | 850.34 ± 0.42
323.15 K, 10020 kPa, m1 = 0.1049 | 777.11 ± 0.45
